Laboratory results from patent publication US20220226265A1, “METHODS OF CONTROLLING MYOCARDIAL BLOOD FLOW” (UNIVERSITY OF LOUISVILLE RESEARCH FOUNDATION, INC., priority 2021, published 2022).

What was measured:
[1] = tested on: isolated mesenteric arteries; assay: Vasodilation of preconstricted isolated mesenteric arteries; design: species or system mouse
Procedure: (§1) Arterial diameter measurements: Primary and secondary branches of the left anterior descending coronary arteries and third and fourth order branches of mesenteric arteries and were dissected and kept in ice-cold isolation buffer consisting of (in mM): 134 NaCl, 6 KCl, 1 MgCl2, 2 CaCl2, 10 HEPES, 7 D-glucose, pH 7.4. Isolated arteries were used for arterial diameter measurements within 8 h after dissection. Isolated arteries were cleaned of connective tissue and cannulated on glass micropipettes mounted in a linear alignment single vessel myograph chamber (Living Systems Instrumentation, St. Albans, Vt., USA). For some experiments, the vascular endothelium was functionally ablated by passage of air through the lumen (˜30 s) during the cannulation procedure. After cannulation, the chamber was placed on an inverted microscope and arteries were equilibrated at 37° C. and intravascular pressure of 20 mmHg, maintained with a pressure servo control unit (Living Systems Instrumentation, St. Albans, Vt., USA) under continuous perfusion (3-5 ml·min^−1) of physiological saline solution (PSS) consisting of (in mM): 119 NaCl, 4.7 KCl, 1.2 KH2PO4, 1.2 MgCl2, 7 D-glucose, 24 NaHCO3, 2 CaCl2, maintained at pH 7.35-7.45 via aeration with gas mixture containing 5% CO2 and 20% O2 (balanced with N2). Following an equilibration period (45-60 min), lumenal diameter was continuously monitored and recorded with a charge coupled device (CCD) camera and edge detection software (IonOptix, Milton, Mass., USA). Experiments were performed to examine effects of step-wise increases in intravascular pressure (20-100 mmHg), elevated [K^+]o (via isosmotic replacement of KCl for NaCl), the synthetic thromboxane A2 analogue U46619 (Tocris Bioscience, Minneapolis, Minn., USA), adenosine (Sigma Aldrich, St. Louis, Mo., USA), or L-lactate (Sigma Aldrich, St. Louis, Mo., USA). For some experiments, hypoxic bath conditions were generated by perfusion of 1 mM Na2S2O4-containing PSS aerated with 5% CO2 (balance N2; 0% O2). Bath O2 levels were measured using a dissolved oxygen meter (World Precision Instruments, Sarasota, Fla., USA). At the end of each experiment, the maximum passive diameter was measured in the presence of Ca^2+-free PSS containing the L-type Ca^2+ channel inhibitor nifedipine (1 μM) and adenylyl cyclase activator forskolin (0.5 μM), as described previously. Vasoconstriction is expressed as a decrease in arterial diameter relative to the maximum passive diameter at a given intravascular pressure. Changes in diameter (e.g., vasodilation) are normalized to differences from baseline and maximum passive diameters for each experiment.

[2] = tested on: isolated coronary arteries; assay: Hypoxia-induced vasodilation of isolated pressurized coronary arteries; design: species or system mouse; details: psora-4 500 nM; WT coronary arteries, 60 mmHg, pre-constricted with 100 nM U46619
Procedure: Arterial diameter measurements: Primary and secondary branches of the left anterior descending coronary arteries and third and fourth order branches of mesenteric arteries and were dissected and kept in ice-cold isolation buffer consisting of (in mM): 134 NaCl, 6 KCl, 1 MgCl2, 2 CaCl2, 10 HEPES, 7 D-glucose, pH 7.4. Isolated arteries were used for arterial diameter measurements within 8 h after dissection. Isolated arteries were cleaned of connective tissue and cannulated on glass micropipettes mounted in a linear alignment single vessel myograph chamber (Living Systems Instrumentation, St. Albans, Vt., USA). […] Following an equilibration period (45-60 min), lumenal diameter was continuously monitored and recorded with a charge coupled device (CCD) camera and edge detection software (IonOptix, Milton, Mass., USA). […] Bath O2 levels were measured using a dissolved oxygen meter (World Precision Instruments, Sarasota, Fla., USA). At the end of each experiment, the maximum passive diameter was measured in the presence of Ca^2+-free PSS containing the L-type Ca^2+ channel inhibitor nifedipine (1 μM) and adenylyl cyclase activator forskolin (0.5 μM), as described previously. Vasoconstriction is expressed as a decrease in arterial diameter relative to the maximum passive diameter at a given intravascular pressure. […]

[3] = tested on: coronary arterial myocytes; assay: Perforated whole cell patch clamp of outward K+ current; format: cell-based, mouse
Procedure: In situ proximity ligation: Arterial myocytes were isolated from coronary and mesenteric arteries using enzymatic digestion procedures, similar to those described previously. Briefly, arteries were incubated in digestion buffer containing (in mM): 140 NaCl, 5 KCl, 2 MgCl2, 10 HEPES, 10 glucose, pH 7.4 at 37° C. for 1 min. […]
Patch clamp electrophysiology: Arterial myocytes were isolated from coronary arteries as described above. […] Total outward K^+ currents (IK) were recorded from coronary arterial myocytes using the perforated whole cell configuration of the patch clamp technique in voltage clamp mode using an Axopatch 200B patch clamp amplifier (Axon Instruments). […] K^+ currents were recorded from each cell in the absence and presence of L-lactate (10 mM) in bath solution with and without psora-4 (500 nM). […] Patch clamp data were analyzed suing Clampfit 9 software (Axon Instruments). IK is expressed as peak currents reached during the period of depolarization normalized by cell capacitance and expressed as pA/pF.

[4] = tested on: isolated coronary arteries; assay: L-lactate-induced vasodilation of preconstricted isolated coronary arteries; design: species or system mouse
Procedure: as §1, with “Experiments were performed to examine effects of step-wise increases in intravascular pressure (20-100 mmHg), elevated [K^+]o (via isosmotic replacement of KCl for NaCl), the synthetic thromboxane A2 analogue U46619 (Tocris Bioscience, Minneapolis, Minn., USA), adenosine (Sigma Aldrich, St. Louis, Mo., USA), or L-lactate (Sigma Aldrich, St. Louis, Mo., USA). For some experiments, hypoxic bath conditions were generated by perfusion of 1 mM Na2S2O4-containing PSS aerated with 5% CO2 (balance N2; 0% O2).” left out, “Changes in diameter (e.g., vasodilation) are normalized to differences from baseline and maximum passive diameters for each experiment.” left out

Nc1ncnc2c1ncn2[C@@H]1O[C@H](CO)[C@@H](O)[C@H]1O [adenosine]
vasodilation induced by adenosine ([1]; adenosine 1-100 μM, Kvβ1.1−/− or Kvβ2−/− arteries vs corresponding WT): not significantly different

O=c1ccc2c(OCCCCc3ccccc3)c3ccoc3cc2o1 [psora-4]
attenuation of hypoxia-induced vasodilation [2]: ~58% | effect on L-lactate-induced increase in outward K+ current density ([3]; psora-4 500 nM, 10 mM L-lactate): abolished | effect on L-lactate-induced vasodilation ([4]; psora-4 500 nM, L-lactate 5-20 mM, WT coronary arteries): abolished | effect on vasodilation in response to L-lactate ([1]; psora-4 500 nM, WT mesenteric arteries): eliminated

C[C@H](O)C(=O)O [L-lactate]
outward K+ current density ([3]; 10 mM L-lactate in the bath, 1-3 min): significant increase | vasodilation in response to external L-lactate ([4]; L-lactate 5-20 mM, WT coronary arteries pre-constricted with 100 nM U46619): step-wise vasodilation | L-lactate-induced vasodilation ([4]; coronary arteries isolated from Kvβ2−/− mice): abolished | dilation on application of L-lactate ([1]; L-lactate 5-20 mM, WT mesenteric arteries preconstricted with 100 nM U46619): robust and reversible dilation | L-lactate-mediated vasodilation ([1]; endothelium-denuded mesenteric arteries, 10 mM L-lactate): insensitive to endothelial denudation | L-lactate-mediated vasodilation ([1]; mesenteric arteries constricted with elevated external K+ (60 mM) rather than U46619): abolished | dilatory response to L-lactate ([1]; mesenteric arteries from Kvβ1.1−/− mice vs corresponding WT): not significantly different | vasodilation in response to extracellular L-lactate ([1]; mesenteric arteries from SM22α-rtTA:TRE-Kvβ1 vs single transgenic control mice): significantly blunted vasodilation | vasodilation in response to L-lactate ([1]; mesenteric arteries with loss of Kvβ2): eliminated
